# Laboratory results reported in US11434205B2, “Substituted imidazole carboxylate derivatives and the use thereof” (priority 2018, dated 2022).
# Read-outs that look alike come from different tables or passages of the source.
# Legend:
# rats [1] = assay: Loss of righting reflexes (LORR) assay in rats, ED50 by up and down method; type: in vivo, rat; details: Rattus norvegicus, tail vein, class symbols
# Protocol: The Anesthetic Activity of the Compounds was Assessed in Rats Using a Loss of Righting Reflexes (LORR) Assay
# (§1) Adult male Sprague-Dawley rats (250-300 g) were selected for the experiment. […] The anesthesia effects of the compounds were assessed in rats using a LORR assay and a period >30 s was considered as an indicator of general anesthesia. Then the up and down method was used to determine 50% effective dose (ED50). The drugs were administered through the tail vein of rats in a volume of 0.6 mL and at a rate of 0.1 mL/s.
# rats [2] = type: in vivo, rat; details: rats of the MAP/HR figures, 2×ED50, tail vein
# rats [3] = type: in vivo, rat; details: rats of the MAP/HR figures, 2×ED50, tail vein; same value in min
# Protocol: The Effects of the Compounds on the Circulatory Function were Measured in Rats Using a Small Animal Implanted Physiological Signal Telemetry System
# The anesthetic activity of the compounds was assessed in rats using a LORR assay and the up and down method was used to determine ED50. […] A small animal implantable physiological signal telemetry system from DSI (Data Science International, Inc.) was used to measure the changes in heart rate (HR) and blood pressure in rats during 30 min after administration. Then mean arterial pressure (MAP) and HR were used as representative indicators to determine hemodynamic stability of the compounds of the present invention in rats.
# A small animal implantable physiological signal telemetry system from DSI (Data Science International, Inc.) including implants (RATHD-521, DSI, United States), receiver boards (RPC-1, DSI, United States), signal conversion devices (DEM, DSI, USA), perfusion glue (DSI, USA), fibrin membrane (DSI, USA), etc.
# First, animal models were established. A left ventricular catheter, an abdominal aortic catheter and ECG wires were placed into rats. At least one week after surgery, data were recorded.
# Administration procedure: rats were put into a restraint device with a 20 G indwelling catheter placed into a lateral tail vein. After administration of 0.2 mL heparin, a pre-filled extension tube was attached and taped to the tail vein to secure the extension tube. Then the rats were removed from the restraint device to a cage before placing them together on the signal receiver. […] Finally, the pharmacological effects, adverse reactions, and behavioural manifestations of the rats were observed and recorded
# Data collection: After setting the data collection parameters on the software, the power of the implant was turned on to start data collection. In this experiment, data recording frequency was set to 15 s. Data collection was continuously recorded for 30 min before and after administration of the drugs in rats. After data acquisition, the test was stopped.
# rats [4] = assay: Pharmacological characteristics at equivalent doses (2×ED50) in rats; details: 2×ED50, tail vein; for Adverse reactions: Red urine (incidence): DMSO solution (DMSO alone 10/10); for Onset time: time of LORR
# Protocol: Comparison of Pharmacological Characteristics of the Compounds at Equivalent Doses (2×ED50) in Rats
# Adult male Sprague-Dawley rats (250-300 g) were selected for the experiment (n=8). […] The drugs were administered at a dose twice their ED50 through the tail vein of rats in a volume of 0.6 mL and at a rate of 0.1 mL/s. In addition, the time of LORR was recorded as the onset time of anesthesia. […] Furthermore, the duration of the pharmacological effects is sufficient to meet the time requirements for rapid induction of general anesthesia and for diagnostic examinations, some short invasive clinical examinations, or operations.
# rats [5] = system: rats
# Protocol: as §1
SMILES,ED50 (rats [1]) [mg/kg],recovery time of the test animals' righting reflex (rats [2]) [s],recovery time of the test animals' righting reflex (rats [3]) [min],Righting reflex duration (rats [4]) [min],Adverse reactions: Red urine (incidence) (rats [4]),Onset time (rats [4]) [min],Approximate therapeutic index (rats [5]),Minimal lethal dose (rats [5]) [mg/kg],Adverse reactions: Tremor (incidence) (rats [4]; animals affected/animals),Adverse reactions: Muscle twitching (incidence) (rats [4])
C[C@H](c1ccccc1)n1cnc(F)c1C(=O)OC1COC1 [Compound E10],0.5 to 1,162,2.70,2.59 ± 0.85,(8/8),0.21 ± 0.05,>14,>10,–,–
C[C@H](c1ccccc1)n1cnc(F)c1C(=O)OC1CSC1 [Compound E11],0.01 to 0.1,93,1.55,1.52 ± 0.53,(8/8),0.57 ± 0.25,>60,>4,–,–
CC#CC1(OC(=O)c2c(F)ncn2[C@H](C)c2ccccc2)COC1 [Compound E15],0.1 to 0.5,72,1.20,1.10 ± 0.89,urine (8/8),0.42 ± 0.13,>32,>5,"(2/8), Red",–
CC#CC(C)OC(=O)c1c(F)ncn1[C@H](C)c1ccccc1 (some centres unmarked) [Compound E16],0.1 to 0.5,200,3.33,3.59 ± 1.22,(8/8),0.30 ± 0.09,>20,>4,–,–
CC#CC(C)(C)OC(=O)c1c(F)ncn1[C@H](C)c1ccccc1 [Compound E17],0.1 to 0.5,196,3.27,3.12 ± 1.61,(8/8),0.26 ± 0.07,>32,>9,–,"(1/8),"
C=C=CC(C)OC(=O)c1c(F)ncn1[C@H](C)c1ccccc1 (some centres unmarked) [Compound E18],0.01 to 0.1,158,2.63,2.51 ± 1.69,(8/8),0.40 ± 0.20,>20,>1,–,–
